Test results reported in ChEMBL document CHEMBL3885881, “DrugMatrix”.

Species: Rattus norvegicus
Assay: DrugMatrix - Regimen: Daily Repeat
Type: toxicity, organism-based, Sprague-Dawley
Set-up: regimen Daily Repeat, gender Male, age 6-8 weeks
Settings: in vivo, po, route oral GAVAGE, […]; for ABSOLUTE BASOPHIL / ABSOLUTE EOSINOPHIL / ABSOLUTE LYMPHOCYTE / ABSOLUTE MONOCYTE / ABSOLUTE SEGMENTED NEUTROPHIL / BASOPHIL / EOSINOPHIL / ERYTHROCYTE COUNT / HEMATOCRIT / HEMOGLOBIN / LEUKOCYTE COUNT / LYMPHOCYTE / MEAN CORPUSCULAR HEMOGLOBIN / MEAN CORPUSCULAR HEMOGLOBIN CONCENTRATION / MEAN CORPUSCULAR VOLUME / MONOCYTE / NEUTROPHIL / NUCLEATED RED BLOOD CELLS / PLATELET COUNT: tissue Blood; for ALANINE AMINOTRANSFERASE / ALBUMIN / ALKALINE PHOSPHATASE / ASPARTATE AMINOTRANSFERASE / BLOOD UREA NITROGEN / CARBON DIOXIDE / CHLORIDE / CHOLESTEROL / CREATINE PHOSPHOKINASE / CREATININE / GLUCOSE / LACTATE DEHYDROGENASE / LIPASE / PHOSPHORUS / POTASSIUM / SODIUM / TOTAL BILIRUBIN / TOTAL PROTEIN / URIC ACID: tissue Plasma
[1] = 12 mg/kg, 120 h, dose level Low, time 5 day
[2] = 75 mg/kg, 72 h, dose level High, time 3 day
[3] = 75 mg/kg, 120 h, dose level High, time 5 day

CO[C@H]1/C=C/O[C@@]2(C)Oc3c(C)c(O)c4c(O)c(c(/C=N/N5CCN(C6CCCC6)CC5)c(O)c4c3C2=O)NC(=O)/C(C)=C\C=C\[C@H](C)[C@H](O)[C@@H](C)[C@@H](O)[C@@H](C)[C@H](OC(C)=O)[C@@H]1C [RIFAPENTINE]
ABSOLUTE BASOPHIL [1]: 0 CELLS/uL
ABSOLUTE EOSINOPHIL [1]: 0 CELLS/uL
ABSOLUTE LYMPHOCYTE [1]: 14120.67 CELLS/uL
ABSOLUTE MONOCYTE [1]: 159.67 CELLS/uL
ABSOLUTE SEGMENTED NEUTROPHIL [1]: 1686.33 CELLS/uL
BASOPHIL [1]: 0%
EOSINOPHIL [1]: 0%
ERYTHROCYTE COUNT [1]: 5.71 x10E6/uL
HEMATOCRIT [1]: 35.8%
HEMOGLOBIN [1]: 13.33 G/DL
LEUKOCYTE COUNT [1]: 15.97 x10E3/uL
LYMPHOCYTE [1]: 88.33%
MEAN CORPUSCULAR HEMOGLOBIN [1]: 23.4 pg
MEAN CORPUSCULAR HEMOGLOBIN CONCENTRATION [1]: 37.3 G/DL
MEAN CORPUSCULAR VOLUME [1]: 62.73 fL
MONOCYTE [1]: 1%
NEUTROPHIL [1]: 10.67%
NUCLEATED RED BLOOD CELLS [1]: 0 /100WBC
PLATELET COUNT [1]: 1349 x10E3/uL
ALANINE AMINOTRANSFERASE [1]: 49.33 u/L
ALBUMIN [1]: 4.07 G/DL
ALKALINE PHOSPHATASE [1]: 549.33 u/L
ASPARTATE AMINOTRANSFERASE [1]: 91.67 u/L
BLOOD UREA NITROGEN [1]: 16 mg/dL
CARBON DIOXIDE [1]: 28 mmol/L
CHLORIDE [1]: 102.67 MEQ/L
CHOLESTEROL [1]: 54.33 mg/dL
CREATINE PHOSPHOKINASE [1]: 385.33 u/L
CREATININE [1]: 0.16 mg/dL
GLUCOSE [1]: 167.67 mg/dL
LACTATE DEHYDROGENASE [1]: 391.67 u/L
LIPASE [1]: 9.67 u/L
PHOSPHORUS [1]: 11.2 mg/dL
POTASSIUM [1]: 6.39 MEQ/L
SODIUM [1]: 142.5 MEQ/L
TOTAL BILIRUBIN [1]: 0.3 mg/dL
TOTAL PROTEIN [1]: 5.9 G/DL
URIC ACID [1]: 1.7 mg/dL
ABSOLUTE BASOPHIL [2]: 0 CELLS/uL
ABSOLUTE EOSINOPHIL [2]: 0 CELLS/uL
ABSOLUTE LYMPHOCYTE [2]: 7973.67 CELLS/uL
ABSOLUTE MONOCYTE [2]: 130.33 CELLS/uL
ABSOLUTE SEGMENTED NEUTROPHIL [2]: 596 CELLS/uL
BASOPHIL [2]: 0%
EOSINOPHIL [2]: 0%
ERYTHROCYTE COUNT [2]: 5.11 x10E6/uL
HEMATOCRIT [2]: 32.07%
HEMOGLOBIN [2]: 12.17 G/DL
LEUKOCYTE COUNT [2]: 8.7 x10E3/uL
LYMPHOCYTE [2]: 92%
MEAN CORPUSCULAR HEMOGLOBIN [2]: 23.8 pg
MEAN CORPUSCULAR HEMOGLOBIN CONCENTRATION [2]: 37.97 G/DL
MEAN CORPUSCULAR VOLUME [2]: 62.73 fL
MONOCYTE [2]: 1.33%
NEUTROPHIL [2]: 6.67%
NUCLEATED RED BLOOD CELLS [2]: 0 /100WBC
PLATELET COUNT [2]: 1158.67 x10E3/uL
ALANINE AMINOTRANSFERASE [2]: 71.33 u/L
ALBUMIN [2]: 4.07 G/DL
ALKALINE PHOSPHATASE [2]: 536.33 u/L
ASPARTATE AMINOTRANSFERASE [2]: 84.33 u/L
BLOOD UREA NITROGEN [2]: 11 mg/dL
CARBON DIOXIDE [2]: 29.33 mmol/L
CHLORIDE [2]: 104.33 MEQ/L
CHOLESTEROL [2]: 73 mg/dL
CREATINE PHOSPHOKINASE [2]: 243 u/L
CREATININE [2]: 0.1 mg/dL
GLUCOSE [2]: 158.33 mg/dL
LACTATE DEHYDROGENASE [2]: 88 u/L
LIPASE [2]: 8.67 u/L
PHOSPHORUS [2]: 11.53 mg/dL
POTASSIUM [2]: 6.14 MEQ/L
SODIUM [2]: 147.17 MEQ/L
TOTAL BILIRUBIN [2]: 0.6 mg/dL
TOTAL PROTEIN [2]: 5.77 G/DL
URIC ACID [2]: 1.13 mg/dL
ABSOLUTE BASOPHIL [3]: 0 CELLS/uL
ABSOLUTE EOSINOPHIL [3]: 83.33 CELLS/uL
ABSOLUTE LYMPHOCYTE [3]: 14410.33 CELLS/uL
ABSOLUTE MONOCYTE [3]: 288.33 CELLS/uL
ABSOLUTE SEGMENTED NEUTROPHIL [3]: 1718 CELLS/uL
BASOPHIL [3]: 0%
EOSINOPHIL [3]: 0.67%
ERYTHROCYTE COUNT [3]: 6.37 x10E6/uL
HEMATOCRIT [3]: 38.63%
HEMOGLOBIN [3]: 14 G/DL
LEUKOCYTE COUNT [3]: 16.5 x10E3/uL
LYMPHOCYTE [3]: 87%
MEAN CORPUSCULAR HEMOGLOBIN [3]: 21.97 pg
MEAN CORPUSCULAR HEMOGLOBIN CONCENTRATION [3]: 36.2 G/DL
MEAN CORPUSCULAR VOLUME [3]: 60.67 fL
MONOCYTE [3]: 1.67%
NEUTROPHIL [3]: 10.67%
NUCLEATED RED BLOOD CELLS [3]: 0 /100WBC
PLATELET COUNT [3]: 1299.67 x10E3/uL
ALANINE AMINOTRANSFERASE [3]: 72 u/L
ALBUMIN [3]: 4.13 G/DL
ALKALINE PHOSPHATASE [3]: 446.67 u/L
ASPARTATE AMINOTRANSFERASE [3]: 99.33 u/L
BLOOD UREA NITROGEN [3]: 13.67 mg/dL
CARBON DIOXIDE [3]: 27.67 mmol/L
CHLORIDE [3]: 101 MEQ/L
CHOLESTEROL [3]: 39 mg/dL
CREATINE PHOSPHOKINASE [3]: 886.67 u/L
CREATININE [3]: 0.13 mg/dL
GLUCOSE [3]: 164 mg/dL
LACTATE DEHYDROGENASE [3]: 219.67 u/L
LIPASE [3]: 7.67 u/L
PHOSPHORUS [3]: 11.07 mg/dL
POTASSIUM [3]: 6.28 MEQ/L
SODIUM [3]: 141.1 MEQ/L
TOTAL BILIRUBIN [3]: 0.4 mg/dL
TOTAL PROTEIN [3]: 5.87 G/DL
URIC ACID [3]: 1.47 mg/dL
